Source: patent US20240002467A1, “COMPOSITIONS AND METHODS OF INHIBITING THE BINDING OF PLASMA IGG AUTOANTIBODIES TO SEROTONIN 2A RECEPTOR” (UNITED STATES GOVERNMENT AS REPRESENTED BY THE DEPARTMENT …, priority 2020, published 2024)
“And” between values parts separate entries of the source, which are not always exact repeats. Equal entries are not always repeated. Ends that are not written are not given here. * marks the point of attachment. Myristoyl = CCCCCCCCCCCCCC(=O)*

What was measured:
[1] = test system: male Zucker diabetic fatty rats; test: Tail cuff blood pressure in male ZDF rats after IP peptide; type: in vivo, rat; settings: for systolic blood pressure-lowering at 4 hours post-administration vs baseline: Experiment 2: two male ZDF rats; for Acute Peak diastolic blood pressure-lowering / Acute Peak mean arterial blood pressure-lowering / Acute Peak systolic blood pressure-lowering / Duration of Action, diastolic BP / Duration of Action, mean arterial BP / Duration of Action, systolic BP: two male ZDF rats
Description: Animals. Male ZDF and lean (+/?) Zucker rats were obtained from Charles River Laboratories (Kingston, NY) at approximately 6-7 weeks of age. The rats were single housed upon arrival, without enrichment. Rats were acclimatized for two weeks prior to experimental procedures. Rats were provided ad libitum access to food and water and maintained in a 12 h light/dark cycle with lights on at 0630. The procedures occurred during the light phase of the cycle. Blood pressure testing (following acute or chronic administration of the decoy peptides) was conducted in three separate cohorts of animals.
Cohort 1: Three 25-week-old male ZDF and three, age-matched, male Zucker lean rats (ZLR) treated with IP decoy peptide 2 (ZDF) vs saline (vehicle) (ZLR).
Cohort 2: Eleven-week old male ZDF (n=5) and Zucker lean rats (n=4) treated with IP decoy peptide 2.
Cohort 3: Twelve 8.5-week old male Zucker diabetic fatty rats were randomly assigned to one of three treatment groups (n=4/group). The rats underwent baseline blood pressure determinations using tail-cuff plethysmography technique. Next, the animals who expressed baseline hypertension, i.e., blood pressure >135/85, received either a 1 mg/kg intraperitoneal injection of pegylated decoy peptide 2 (n=3); a 2 mg/kg intraperitoneal dose of a scrambled decoy peptide 2 (n=4); or vehicle (i.e., sterile saline) (N=4). Blood pressure was determined at 15 minutes, 45 minutes, 4 hours, 8 hours, 24 hours, 30 and 48 hours following single IP injection. One week later, the same two groups of ZDF rats received either 0.75 mg/kg IP pegylated decoy peptide 2, 2 mg/kg scrambled decoy peptide 2, or sterile saline; and blood pressure was determined at similar timepoints. Two weeks later, two groups of 12-week-old ZDF rats (n=6/group) including those that had previously received acute peglyated decoy peptide 2 or scrambled decoy peptide 2 were treated on an alternative daily schedule with IP, free decoy peptide 2 (2 mg/kg) vs IP scrambled decoy peptide 2 (2 mg/kg) continuously for 13 weeks until sacrifice at 25 weeks of age. Body weight was determined immediately before sacrifice and after perfusion; and hearts were excised and weighed for determination of the heart-to-(perfused) body weight ratio.
(§1) Blood pressure monitoring. Tail cuff blood pressure measurement was performed using an automated CODA noninvasive blood pressure system (Kent Scientific, Torrington, CT). Rats were placed on an insulated warming platform in a well-heated room to ensure proper body temperature. Cuff monitors were provided in different sizes to accommodate rats of different ages and having different body weights. After the animal was positioned in the clear plastic restraint holder, the appropriate-sized cuff was slid over the rat's tail.
Statistical Analysis. Comparisons were made using Student's unpaired t-test (Tables 3-6, 9 and FIG. 18) or time series analysis (Tables 7, 8, FIG. 16).
as §1, with “CT.).” for “CT).”
Experiment 1: Four 12-week-old male ZDF rats were randomly assigned to receive either a single IP injection of a scrambled sequence (SEQ ID NO: 7) of Peptide ID #2 (SEQ ID NO: 2) at 1 mg/kg concentration or a 1 mg/kg concentration of myristolated Peptide ID #2 (SEQ ID NO: 9). Blood pressure was determined using tail cuff plethysmography (Kent Scientific) at 1, 4, 6, 48 and 72 hours post-injection.
Experiment 2: Six 12-week-old male ZDF rats were assigned to each of three treatment groups (N=2/group). […]

[2] = Solubility in water on reconstitution; type: physicochemical; settings: compared with unconjugated peptide; reconstituted in DMSO first
Description: Synthetic peptides. The peptides were synthesized at Lifetein Inc. (Hillborough, NJ). The lyophilized peptides were aliquoted and stored (in the presence of desiccant) at −40° C. prior to use. On the day of intraperitoneal (IP) administration, an aliquot of lyophilized unconjugated peptide was reconstituted in sterile saline at the appropriate concentration of 2 mg/kg. Reconstituted peptide was prepared fresh before each injection. […] The final concentration of DMSO in sterile saline was 10%. The vehicle, DMSO in sterile saline, was tested independently and had no effect on blood pressure when administered as an IP injection.

[3] = test system: male Zucker diabetic fatty rats; test: Tail cuff blood pressure in male ZDF rats after IP peptide; type: in vivo, rat; settings: two 13-week-old male ZDF rats, myristolated 2.5 mg/kg single IP
[4] = test system: Zucker diabetic fatty rats; test: Observation of side effects / tolerability in ZDF rats
[5] = 11-week-old male ZDF rats (N=4/group), single IP Myr-peptide 2 2 mg/kg vs scrambled 1 mg/kg (reference = 0), over 6 days
[6] = Experiment 1: myristolated 1 mg/kg single IP
[7] = four 11-12-week-old male ZDF rats, single 2 mg/kg IP
[8] = male ZDF rats before single 2 mg/kg IP, unconjugated: two 25-week-old, myristolated: four 11-12-week-old
[9] = male ZDF rats, single 2 mg/kg IP, unconjugated: two 25-week-old, myristolated: four 11-12-week-old
[10] = single 2 mg/kg IP vs 1 mg/kg scrambled
[11] = myristolated 1 mg/kg single IP, listed as Myristolated Peptide 2
[12] = myristolated 1.5 mg/kg single IP
[13] = myristolated 1.5 mg/kg single IP, listed as Myristolated Peptide 2
[14] = myristolated 2.0 mg/kg single IP
[15] = myristolated 2.0 mg/kg single IP, listed as Myristolated Peptide 2
[16] = myristolated 2.5 mg/kg single IP
[17] = myristolated 2.5 mg/kg single IP, listed as Myr Peptide 2
[18] = myristolated 2.5 mg/kg single IP, listed as Myristolated Peptide 2

## Myr-SCLLADDN (Myristoyl-SCLLADDN) [myristolated Peptide ID 2]
[1]; [5]
  Estimate: diastolic blood pressure lowering effect vs scrambled peptide (time series): −12.0471
  Estimate: systolic blood pressure lowering effect vs scrambled peptide (time series): −17.4393
[1]; Experiment 1: male ZDF rats (N=2/group), 1 mg/kg single IP
  effect on diastolic blood pressure, in words: rapid-onset diastolic blood pressure lowering
[1]; [6]
  effect on systolic blood pressure, in words: significantly lower at 1, 4, 6 hours and 48 hours post-baseline, but not at 72 hours
  time span of significantly reduced mean arterial blood pressure: 1 to 72 h
[1]; Experiment 2: myristolated 1 mg/kg IP, one value per rat
  persistence of systolic blood pressure-lowering: 48 to 72 h and 96 to 168 h
[1]; Experiment 2: myristolated 1 mg/kg IP, rat 1 / rat 2
  persistence of declines in diastolic and mean arterial blood pressure: 2 to 3 days and 4 to 7 days
[1]; Experiment 2: myristolated 1.5 mg/kg IP
  persistence of systolic blood pressure-lowering: up to 168 hours
[1]; Experiment 2: myristolated 1.5 mg/kg IP, both rats
  persistence of blood pressure-lowering: up to 7 days
[1]; myristolated 1 mg/kg IP
  systolic blood pressure-lowering at 4 hours post-administration vs baseline: 8-11%
[1]; myristolated 1.5 mg/kg IP
  systolic blood pressure-lowering at 4 hours post-administration vs baseline: 13%
[1]; [7]
  mean diastolic BP, 72 hours: 80
  mean diastolic BP, 6 days: 85
  mean diastolic BP, 7 days: 94
  mean systolic BP, 72 hours: 126
  mean systolic BP, 6 days: 127
  mean systolic BP, 7 days: 142
[1]; [8]
  mean diastolic BP, Baseline: 97
  mean systolic BP, Baseline: 146
[1]; [9]
  mean diastolic BP, 24 hours: 76
  mean diastolic BP, 48 hours: 82
  mean systolic BP, 24 hours: 117
  mean systolic BP, 48 hours: 123
[1]; male ZDF rats, single IP 2 mg/kg, myristic acid conjugated
  duration of blood pressure lowering: ≥ 6 days
[1]; [10]
  mean lowering in diastolic blood pressure compared to scrambled Peptide 2: 12 mm Hg
  mean lowering in systolic blood pressure compared to scrambled Peptide 2: 17.4 mm Hg
[1]; single IP doses ranging from 1.0-2.5 mg/kg
  blood pressure-lowering effects, in words: potent, dose-dependent, and in many cases unexpectedly quite long-lasting
[1]; two 13-week-old male ZDF rats, myristolated 2.5 mg/kg single IP
  time until systolic and diastolic blood pressure returned to baseline: 9 days
[1]; myristolated 1 mg/kg single IP
  Acute Peak diastolic blood pressure-lowering: 10-12%
  Acute Peak mean arterial blood pressure-lowering: 6-8%
  Acute Peak systolic blood pressure-lowering: 4-10%^
  Duration of Action, diastolic BP: 4 to 6 days
  Duration of Action, mean arterial BP: 4 to 6 days
[1]; [11]
  Acute Peak diastolic blood pressure-lowering: 10-12%
  Acute Peak mean arterial blood pressure-lowering: 6-8%
  Duration of Action, systolic BP: 4 to 7 days and 7 days
[1]; [12]
  Acute Peak diastolic blood pressure-lowering: 11-19%
  Acute Peak mean arterial blood pressure-lowering: 14%
  Acute Peak systolic blood pressure-lowering: 10%
  Duration of Action, diastolic BP: 7 days
  Duration of Action, mean arterial BP: 7 days
  Duration of Action, systolic BP: 7 days
[1]; [13]
  Acute Peak diastolic blood pressure-lowering: 19%
  Acute Peak mean arterial blood pressure-lowering: 14%
[1]; [14]
  Acute Peak diastolic blood pressure-lowering: 22-25%
  Acute Peak systolic blood pressure-lowering: 7-15%
[1]; myristolated 2.0 mg/kg single IP, listed as Myr Peptide 2
  Acute Peak mean arterial blood pressure-lowering: 14-22%
[1]; [15]
  Acute Peak diastolic blood pressure-lowering: 20-25%.
  Acute Peak mean arterial blood pressure-lowering: 14-22%
  Acute Peak systolic blood pressure-lowering: 15%
[1]; [16]
  Acute Peak systolic blood pressure-lowering: 20-23%
  Duration of Action, diastolic BP: 9 days
  Duration of Action, mean arterial BP: 9 days
  Duration of Action, systolic BP: 9 days
[1]; [17]
  Acute Peak diastolic blood pressure-lowering: 18-35%
  Acute Peak mean arterial blood pressure-lowering: 28-30%
[1]; [18]
  Acute Peak diastolic blood pressure-lowering: 18-36%
  Acute Peak mean arterial blood pressure-lowering: 19-30%
  Acute Peak systolic blood pressure-lowering: 23%
[2]
  solubility in water, in words: lower solubility in water
[3]; listed as myristolated decoy Peptide 2
  duration of persistent blood pressure lowering: 9 days
[3]; listed as myristolated decoy peptide 2
  duration of persistent blood pressure lowering: 8 days
[4]; Experiment 1: male ZDF rats, myristolated 1 mg/kg IP
  adverse physical or behavioral effects: No discernable adverse physical or behavioral effects
[4]; ten ZDF rats (Expt 1 and 2), up to 14-21 days after single IP
  untoward physical or behavioral effect: None of the ten rats tested (N=4 in Expt 1; N=6 in Expt 2) experienced any untoward physical or behavioral effect
